Reference: PubChem BioAssay AID1259407 (Chemical Carcinogenesis Research Information System (CCRIS), 2018)
Active and inactive are the calls of the source. No rule for the calls is given here.

Tested on: CCRIS mutagenicity, Ames/micronucleus/aberration tests
Experiment: CCRIS mutagenicity studies
[1] = Test System: AMES SALMONELLA TYPHIMURIUM, Strain/Indicator: TA98, Metabolic Activation: NONE, Method: STANDARD PLATE
[2] = Test System: AMES SALMONELLA TYPHIMURIUM, Strain/Indicator: TA100, Metabolic Activation: NONE, Method: STANDARD PLATE
[3] = Test System: AMES SALMONELLA TYPHIMURIUM, Strain/Indicator: TA1535, Metabolic Activation: NONE, Method: STANDARD PLATE
[4] = Test System: AMES SALMONELLA TYPHIMURIUM, Strain/Indicator: TA1537, Metabolic Activation: NONE, Method: STANDARD PLATE
[5] = Test System: E. COLI, Strain/Indicator: WP2 UVRA, Metabolic Activation: NONE, Method: PREINCUBATION

For Cc1ccc2nsc(NC(=O)C(Cl)(Cl)Cl)c2c1, the mutagenic call [1] was “active; positive”, the mutagenic call (Test System: AMES SALMONELLA TYPHIMURIUM, Strain/Indicator: TA98, Metabolic Activation: S-9, Method: STANDARD PLATE) was “active; positive” and the mutagenic call [2] was “active; positive”. For the same compound, the mutagenic call (Test System: AMES SALMONELLA TYPHIMURIUM, Strain/Indicator: TA100, Metabolic Activation: S-9, Method: STANDARD PLATE) was “active; positive”, the mutagenic call [3] was “inactive; negative” and the mutagenic call (Test System: AMES SALMONELLA TYPHIMURIUM, Strain/Indicator: TA1535, Metabolic Activation: S-9, Method: STANDARD PLATE) was “inactive; negative”. The mutagenic call [4] was “inactive; negative” and the mutagenic call (Test System: AMES SALMONELLA TYPHIMURIUM, Strain/Indicator: TA1537, Metabolic Activation: S-9, Method: STANDARD PLATE) was “inactive; negative”.
In the case of CCN(CCCl)CCCNc1c2ccc(Cl)cc2nc2ccc(OC)cc12, the mutagenic call [1] is reported as “active; positive”, the mutagenic call [2] is reported as “active; positive” and the mutagenic call [3] is reported as “inactive; negative”. For the same compound, the mutagenic call (Test System: AMES SALMONELLA TYPHIMURIUM, Strain/Indicator: TA1536, Metabolic Activation: NONE, Method: STANDARD PLATE) was “active; positive”, the mutagenic call [4] was “active; positive” and the mutagenic call (Test System: AMES SALMONELLA TYPHIMURIUM, Strain/Indicator: TA1538, Metabolic Activation: NONE, Method: STANDARD PLATE) was “active; positive”. For the same compound, the mutagenic call (Test System: CHINESE HAMSTER OVARY, Strain/Indicator: CHO-K1-BH4 (HGPRT)/6-THIOGUANINE, Metabolic Activation: NONE, Method: SUSPENSION/PLATE) was “active; positive”, the mutagenic call (Test System: CHINESE HAMSTER OVARY, Strain/Indicator: CHO-K1-BH4 (HGPRT), Metabolic Activation: NONE, Method: MONOLAYER ASSAY) was “active; positive” and the mutagenic call (Test System: CHINESE HAMSTER OVARY, Strain/Indicator: CHO-K1-BH4 (HGPRT), Metabolic Activation: NONE, Method: SUSPENSION/PLATE) was “active; positive”. For the same compound, the mutagenic call (Test System: CHINESE HAMSTER V-79, Strain/Indicator: V-79/6-THIOGUANINE, Metabolic Activation: NONE, Method: FLASK ASSAY) was “active; positive”, the mutagenic call (Test System: CHINESE HAMSTER V-79, Strain/Indicator: V-79/8-AZAGUANINE, Metabolic Activation: NONE, Method: STANDARD PLATE) was “active; positive” and the mutagenic call (Test System: CHO/HGPRT, Strain/Indicator: CHO-K1-BH4, Metabolic Activation: NONE, Method: STANDARD PLATE) was “active; positive”. The mutagenic call (Test System: MOUSE LYMPHOMA, Strain/Indicator: L5178Y (TK+/TK-), Metabolic Activation: NONE, Method: SUSPENSION/PLATE) was “active; positive”, the mutagenic call (Test System: Mouse lymphoma, Strain/Indicator: L5178Y (tk+/tk-), Metabolic Activation: None, Method: Suspension/plate) was “active; positive” and the mutagenic call (Test System: Mouse lymphoma, Strain/Indicator: L5178Y (tk+/tk-), Metabolic Activation: Rat, Liver, S-9, Aroclor 1254, Method: Suspension/plate) was “inconclusive (previous evaluation equivocal)”.
With O=C=Nc1ccc(Cc2ccc(N=C=O)cc2)cc1 the mutagenic call (Test System: AMES SALMONELLA TYPHIMURIUM, Strain/Indicator: TA98, Metabolic Activation: HAMSTER, LIVER, S-9, AROCLOR 1254 (10%), Method: PREINCUBATION) was “inactive; negative”, the mutagenic call (Test System: AMES SALMONELLA TYPHIMURIUM, Strain/Indicator: TA98, Metabolic Activation: NONE, Method: PREINCUBATION) was “inactive; negative” and the mutagenic call (Test System: AMES SALMONELLA TYPHIMURIUM, Strain/Indicator: TA98, Metabolic Activation: RAT, LIVER, S-9, AROCLOR 1254 (10%), Method: PREINCUBATION) was “inactive; negative”. The mutagenic call (Test System: AMES SALMONELLA TYPHIMURIUM, Strain/Indicator: TA98, Metabolic Activation: RAT, LIVER, S-9, KC 500, Method: PREINCUBATION) was “inactive; negative”, the mutagenic call (Test System: AMES SALMONELLA TYPHIMURIUM, Strain/Indicator: TA100, Metabolic Activation: HAMSTER, LIVER, S-9, AROCLOR 1254 (10%), Method: PREINCUBATION) was “inactive; negative” and the mutagenic call (Test System: AMES SALMONELLA TYPHIMURIUM, Strain/Indicator: TA100, Metabolic Activation: NONE, Method: PREINCUBATION) was “inactive; negative”. The mutagenic call (Test System: AMES SALMONELLA TYPHIMURIUM, Strain/Indicator: TA100, Metabolic Activation: RAT, LIVER, S-9, AROCLOR 1254 (10%), Method: PREINCUBATION) was “inactive; negative”, the mutagenic call (Test System: AMES SALMONELLA TYPHIMURIUM, Strain/Indicator: TA100, Metabolic Activation: RAT, LIVER, S-9, KC 500, Method: PREINCUBATION) was “active; positive” and the mutagenic call (Test System: AMES SALMONELLA TYPHIMURIUM, Strain/Indicator: TA1535, Metabolic Activation: HAMSTER, LIVER, S-9, AROCLOR 1254 (10%), Method: PREINCUBATION) was “inactive; negative”. The mutagenic call (Test System: AMES SALMONELLA TYPHIMURIUM, Strain/Indicator: TA1535, Metabolic Activation: NONE, Method: PREINCUBATION) was “inactive; negative”, the mutagenic call (Test System: AMES SALMONELLA TYPHIMURIUM, Strain/Indicator: TA1535, Metabolic Activation: RAT, LIVER, S-9, AROCLOR 1254 (10%), Method: PREINCUBATION) was “inactive; negative” and the mutagenic call (Test System: AMES SALMONELLA TYPHIMURIUM, Strain/Indicator: TA1535, Metabolic Activation: RAT, LIVER, S-9, KC 500, Method: PREINCUBATION) was “inactive; negative”. For the same compound, the mutagenic call (Test System: AMES SALMONELLA TYPHIMURIUM, Strain/Indicator: TA1537, Metabolic Activation: HAMSTER, LIVER, S-9, AROCLOR 1254 (10%), Method: PREINCUBATION) was “inactive; negative”, the mutagenic call (Test System: AMES SALMONELLA TYPHIMURIUM, Strain/Indicator: TA1537, Metabolic Activation: NONE, Method: PREINCUBATION) was “inactive; negative” and the mutagenic call (Test System: AMES SALMONELLA TYPHIMURIUM, Strain/Indicator: TA1537, Metabolic Activation: RAT, LIVER, S-9, AROCLOR 1254 (10%), Method: PREINCUBATION) was “inactive; negative”. For the same compound, the mutagenic call (Test System: AMES SALMONELLA TYPHIMURIUM, Strain/Indicator: TA1537, Metabolic Activation: RAT, LIVER, S-9, KC 500, Method: PREINCUBATION) was “inactive; negative”, the mutagenic call (Test System: AMES SALMONELLA TYPHIMURIUM, Strain/Indicator: TA1538, Metabolic Activation: NONE, Method: PREINCUBATION) was “inactive; negative” and the mutagenic call (Test System: AMES SALMONELLA TYPHIMURIUM, Strain/Indicator: TA1538, Metabolic Activation: RAT, LIVER, S-9, KC 500, Method: PREINCUBATION) was “inactive; negative”. For the same compound, the mutagenic call [5] was “inactive; negative” and the mutagenic call (Test System: E. COLI, Strain/Indicator: WP2 UVRA, Metabolic Activation: RAT, LIVER, S-9, KC 500, Method: PREINCUBATION) was “inactive; negative”.
For CC(=O)Nc1ccc(Oc2ccc(Cl)cc2Cl)cc1, the mutagenic call [2] was “inactive; negative” and the mutagenic call (Test System: AMES SALMONELLA TYPHIMURIUM, Strain/Indicator: TA100, Metabolic Activation: RAT, LIVER, S-9, KANECLOR 500, Method: STANDARD PLATE) was “active; positive”.
CC(=O)Nc1cc2c(cc1O)-c1ccccc1C2 was tested, and the mutagenic call (Test System: AMES SALMONELLA TYPHIMURIUM, Strain/Indicator: TA98, Metabolic Activation: RAT, LIVER, S-9, AROCLOR 1254, Method: STANDARD PLATE) was “inactive; negative”.
For Cc1c2c3c(cccc3c3ccccc13)-c1ccccc1-2, the mutagenic call (Test System: AMES SALMONELLA TYPHIMURIUM, Strain/Indicator: TA100, Metabolic Activation: RAT, LIVER, S-9, AROCLOR 1254) was “active; positive”.
For O=[N+]([O-])c1ccnc2ccccc12, the mutagenic call (Test System: AMES SALMONELLA TYPHIMURIUM, Strain/Indicator: TA1538, Metabolic Activation: RAT, LIVER, S-9, KC500 OR PHENOBARBITAL, Method: LIQUID SUSPENSION) was “active; positive” and the mutagenic call (Test System: UDS RODENT PRIMARY CELLS, Strain/Indicator: THY INCORP (NON-S-PHASE), Metabolic Activation: NONE, Method: AUTORADIOGRAPHY) was “active; positive”.
With CCCCN(N=O)C(=O)NC the mutagenic call [5] was “active; positive” and the mutagenic call (Test System: E. COLI, Strain/Indicator: WP2 UVRA, Metabolic Activation: RAT, LIVER, S-9, PHENOBARBITAL AND 5,6-BENZOFLAVONE, Method: PREINCUBATION) was “active; positive”.
For c1ccc([Se][Se]c2ccccc2)cc1, the mutagenic call (Test System: AMES SALMONELLA TYPHIMURIUM, Strain/Indicator: TA97A, Metabolic Activation: NONE, Method: PREINCUBATION) was “active; positive” and the mutagenic call (Test System: AMES SALMONELLA TYPHIMURIUM, Strain/Indicator: TA102, Metabolic Activation: NONE, Method: PREINCUBATION) was “inactive; negative”.
CCCCCCCCCCCCCC(=O)ON(C(C)=O)c1ccc2c(c1)Cc1ccccc1-2 was tested, and the mutagenic call (Test System: UDS HUMAN FIBROBLASTS, Strain/Indicator: THY INCORP (NON-S-PHASE), Metabolic Activation: NONE, Method: AUTORADIOGRAPHY) was “active; positive”.
